Data: patent US20250177351A1, “ISOINDOLINE COMPOSITIONS AND METHODS FOR TREATING NEURODEGENERATIVE DISEASE” (Cognition Therapeutics, Inc., priority 2022, published 2025)
Marks after values point to notes of the source that are not given here.

What was measured:
[1] = Phase 1 MAD study: cognitive testing in healthy elderly cohort; type: in vivo, human; settings: 560 mg for 14 days (N = 7)
Method: The Alzheimer's Disease Assessment Scale-Cognition Subscale (ADAS-Cog 13) and a cognitive battery (including the category fluency test, controlled word association test, WMS-R digit span, digit symbol substitution test, and Rey Auditory Verbal Learning Test) were administered to subjects in the elderly cohort at baseline and on Day 14.

[2] = Phase 1 MAD study: CT1812 concentration in CSF; type: in vivo, human; settings: humans, from CSF levels
Description: CT1812 was quantitated in CSF using a validated LC-MS/MS method.

CYP isoenzymes = experiment: Drug interaction studies
[3] = Aged transgenic mouse models of AD; type: in vivo
[4] = Phase 1 multiple ascending dose (MAD) study: plasma pharmacokinetics; type: in vivo, human; design: CLss/F: unit not given here; settings: for CLss/F / t1/2: MAD
Method: A Phase 1, two-part single and multiple ascending dose study was conducted in 7 and 4 cohorts of healthy human subjects respectively. […] In Part B, subjects were administered 280, 560, and 840 mg once daily for 14 days (8:2 A:P per cohort). An elderly cohort, age 65-75, was dosed at 560 mg once daily for 14 days (7:2 A:P). […] Cognitive testing was performed in the healthy elderly cohort at baseline and at Day 14 of treatment.
In Part B, healthy young subjects in each cohort received the same dose once daily for 14 days after overnight fasting. Cohort dosing started at 280 mg, followed by 560 mg and 840 mg in subsequent cohorts. In each cohort, eight subjects received drug and two received placebo. A fourth cohort of healthy elderly subjects (≥65 years old) received a 560 mg dose vs. placebo daily for 14 days (seven active, two placebo).
Subjects were dosed in the morning with 240 mL of water after an 8-hour fast, and remained in a semi-reclined position for 1 hour and fasting for 2 hours post-administration, except for the fed cohort in Part A. Subjects in each MAD cohort were confined to the clinical facility from check-in on Day 0 until the pharmacokinetic sample was collected on Day 16, 48 hours after administration of the last dose on Day 14. Subjects returned to the clinical facility for follow-up visits on Days 24 and 35.
In Part A, blood draws for assessment of PK parameters occurred pre-dose and at 15, 30, 45, 60, and 90 minutes post dose as well as at 2, 3, 4, 8, 12, 24, 36, and 48 hours post dose. […] In Part B, blood samples for plasma PK analysis were taken on Day 1 at pre-dose and at 2 hours post-dose, on Day 3 at pre-dose and at 15, 30 and 45 minutes and 1, 2, 3, 4, 8, 12 and 24 hours post-dose, on Days 4, 6, 8 and 10 at pre-dose and at 1.5 hours post-dose and following the final dose on Day 14 at pre-dose and 15, 30 and 45 minutes and 1, 2, 4, 8, 12, 24, 36 and 48 hours post-dose.
This was assessed by analysis of variance (ANOVA) of log-transformed Cmax, AUC0-24, AUC0-48, and/or AUC0-inf, using a model with factors for treatment (fed status or age [young vs. elderly] status) and subject within sequence. Treatment mean differences and 90% confidence intervals of the log transformed PK parameters were back-transformed, to present the geometric least squares means ratios and 90% confidence limits.

[5] = Phase 1 SAD study: safety assessments; type: in vivo, human
Method: Part A was a single ascending dose cohort study in which healthy, young subjects (less than 65 years old) received one dose of study drug in the morning after an overnight fast. Cohort dosing started at 10 mg and increased to 30 mg, 90 mg, 180 mg, 450 mg, and 1120 mg in subsequent cohorts. Six drug-treated and two placebo-treated subjects were randomized in each cohort. A seventh cohort of six subjects each received a single 90 mg dose of drug 30 min. after a meal. Following completion of all safety assessments and blood draws for PK analyses, subjects were discharged on Day 3.
Safety variables, including incidence of adverse events (AEs), vital signs, clinical laboratory findings, 12-lead electrocardiographs (ECGs), physical examination, and affective and cognitive measures (Part B only), were summarized for all subjects who received study drug.

[6] = MAD 560 mg, Day 14 (steady state)
[7] = age up to 64 years, 280 mg (n = 8), Day 14, mean
[8] = age up to 64 years, 560 mg (n = 8), Day 14, mean

CC(C)(C)Oc1cc(CCC(C)(C)N2Cc3ccc(S(C)(=O)=O)cc3C2)ccc1O [CT1812]
COWAT (Trial 2), Mean (SD) ([1]; Day 14, Day 0: 9.6 (4.2)): 10.6 (5.1) | COWAT (Trial 1), Mean (SD) ([1]; Day 14, Day 0: 11.3 (5.7)): 12.6 (4.5) | COWAT (Trial 3), Mean (SD) ([1]; Day 14, Day 0: 14.6 (5.7)): 15.1 (3.7) | RAVLT, Mean (SD) ([1]; Day 14, Day 0: 17.3 (3.9)): 18.7 (3.1) | WMS-R (Digit Span), Mean (SD) ([1]; Day 14, Day 0: 17.9 (3.3)): 17.9 (3.3) | CFT, Mean (SD) ([1]; Day 14, Day 0: 18.4 (5.5)): 19.7 (2.4) | DSST, Mean (SD) ([1]; Day 14, Day 0: 78.3 (11.0)): 80 (9.6) | blood-brain barrier penetration [2]: penetrates the blood-brain barrier | interactions with CYP isoenzymes (CYP isoenzymes): minor interactions | cognitive performance ([3]; aged transgenic mouse models of AD): restoring normal cognitive performance | inflammatory protein expression in CSF ([3]; chronic treatment of aged transgenic mice, efficacious doses, LC/MSMS): significantly reduces | AUC0-24h, aged cohort vs subjects under 64 years (geometric least-squares mean) ([4]; MAD 560 mg, Day 3): ~1.34 times | Cmax, aged cohort vs subjects under 64 years (geometric least-squares mean) ([4]; MAD 560 mg, Day 3): approximately 1.7 times | AUC0-24h, aged cohort vs younger subjects [4, 6]: 1.5 times | Cmax, aged cohort vs younger subjects [4, 6]: 1.6 times | increase of Cmax and AUC with dose ([4]; MAD 280 to 840 mg): slightly greater than dose proportionally | CLss/F ([4]; age at least 65 years, 560 mg (n = 7), Day 14, mean): 169^‡‡ | t1/2 ([4]; age at least 65 years, 560 mg, Day 3 (n = 4), over max. 24 hours post dose): 8.83^†† hr | CLss/F [4, 7]: 387 | t1/2 [4, 7]: 12.0 h | CLss/F [4, 8]: 296 | t1/2 [4, 8]: 12.3 h | CLss/F ([4]; age up to 64 years, dose cell prints 560 mg (n = 7), Day 14, follows 840 mg Day 3): 212^‡‡ | t1/2 ([4]; age up to 64 years, dose cell prints 560 mg (n = 7), Day 14, follows 840 mg Day 3 (n = 6)): 8.93^§ hr | accumulation in plasma ([4]; over 14 days): minimal accumulation | ECG ([5]; SAD): No ECG parameters or changes were assessed as clinically significant | clinical laboratory results ([5]; SAD): no subjects with clinically significant laboratory results | Number of Subjects with Treatment-Emergent AE: All TEAEs ([5]; SAD Total Active (n = 42)): 18 | Number of Subjects with Treatment-Emergent AE: Headache ([5]; SAD Total Active (n = 42)): 6 | Number of Subjects with Treatment-Emergent AE: Nausea ([5]; SAD Total Active (n = 42)): 6 | Number of Subjects with Treatment-Emergent AE: All TEAEs ([5]; SAD fasted 10 mg (n = 6)): 2 | Number of Subjects with Treatment-Emergent AE: All TEAEs ([5]; SAD fasted 30 mg (n = 6)): 4 | Number of Subjects with Treatment-Emergent AE: Headache ([5]; SAD fasted 30 mg (n = 6)): 3 | Number of Subjects with Treatment-Emergent AE: Nausea ([5]; SAD fasted 30 mg (n = 6)): 1 | Number of Subjects with Treatment-Emergent AE: All TEAEs ([5]; SAD fasted 180 mg (n = 6)): 2 | Number of Subjects with Treatment-Emergent AE: All TEAEs ([5]; SAD fasted 450 mg (n = 6)): 4 | Number of Subjects with Treatment-Emergent AE: Headache ([5]; SAD fasted 450 mg (n = 6)): 1 | Number of Subjects with Treatment-Emergent AE: Nausea ([5]; SAD fasted 450 mg (n = 6)): 2 | Number of Subjects with Treatment-Emergent AE: All TEAEs ([5]; SAD fasted 1120 mg (n = 6)): 4 | Number of Subjects with Treatment-Emergent AE: Headache ([5]; SAD fasted 1120 mg (n = 6)): 1 | Number of Subjects with Treatment-Emergent AE: Nausea ([5]; SAD fasted 1120 mg (n = 6)): 3 | Number of Subjects with Treatment-Emergent AE: All TEAEs ([5]; SAD fed 90 mg (n = 6)): 2 | Number of Subjects with Treatment-Emergent AE: Headache ([5]; SAD fed 90 mg (n = 6)): 1 | deaths or serious adverse events ([5]; SAD, 10 mg to 1120 mg): no deaths or other serious adverse events | tolerability ([5]; single dose 10 mg to 1120 mg, healthy subjects): well tolerated
